Data as given in patent publication US10392398B2, “Inhibitors of Late SV40 Factor (LSF) as cancer chemotherapeutics” (TRUSTEES OF BOSTON UNIVERSITY, priority 2010, dated 2019).
Values after ≈ are worked out from the molar mass of the structure shown. Where two headings read alike, the source gives them in different places.

What was measured:
HeLa cells = test: Cell proliferation assay (MTS), HeLa; assay type: cell-based; conditions: Homo sapiens
Procedure: Cells were plated at 3×10^4 cells/mL, A549 and HeLa, and 1×10^4 cells/mL, NIH/3T3, in 96-well plates and incubated for 24 h to allow for cell adhesion. LSF-library compounds were dissolved in DMSO, serial diluted in appropriate medium and added to cells in triplicate (2 plates). DMSO was added to control wells at a final concentration of 1%. After 72 h incubation in the presence of compound, confluent cells were assayed for growth proliferation with CellTiter 96® AQueous One Solution Cell Proliferation Assay (MTS) (Promega) according to the manufacturer's protocol. Plates were read at 490 nm on a microplate reader, and IC50 values were determined as the percentage of compound-treated cell growth to control cell growth. HCC cells—one hour after plating HCC cells onto 96-well plates, compound or vehicle (DMSO) was added to the desired concentrations, keeping DMSO at 0.5%. At indicated time points, cell viability was assayed using the CellTiter 96® Non-Radioactive Cell Proliferation Assay (MTT) (Promega).

QGY-7703-derived tumors = test: Subcutaneous xenograft model of HCC in mice; assay type: in vivo; conditions: for growth of hepatocellular carcinoma in vivo: intraperitoneally once every 3 days, about 1.0-2.0 mg/kg
Source text: The inventors, in collaboration with other scientists performed in vivo experiments in a subcutaneous xenograft model, where mice with small QGY-7703-derived tumors were given multiple, spaced intraperitoneal injections of FQI1 (Formula IV) over a 2 week period, followed by an additional 2-weeks prior to analysis. […] However, expression of osteopontin, whose gene is activated directly by LSF^8, was abolished by FQI1 treatment, as was expression of Ki-67, indicative of the replicative capacity of the tumors (data not shown). […] In contrast to the dramatic effects on tumor growth, no general toxicity was evident in the inhibitor-treated animals, as assayed by lack of changes in body weight, feeding, grooming, posture, and general behavior, as well as hematoxylin and eosin staining of multiple tissues (data not shown), and levels of liver enzymes and protein in the blood (data not shown).

QGY-7703 cells = test: TUNEL apoptosis assay, QGY-7703; assay type: cell-based; conditions: QGY-7703, 10 μM
Procedure: HCC cells were plated 24 h prior to incubation with FQI1. At the indicated time points, cells were analyzed using the FragEL™ DNA fragmentation kit (Calbiochem) according to the manufacturer's protocol. Flow cytometry was performed using a FACS caliber (Becton Dickinson) and analyzed with Cell Quest software.

[1] = Kinetic solubility, turbidity based assay; assay type: physicochemical; conditions: PBS buffer, 37 °C, pH 7.2, aqueous buffer, kinetic from dmso stock, 1×PBS pH 7.2, 1% DMSO, read-out: kinetic solubility, concentration at which precipitates first showed
Procedure: Kinetic solubility was measured via a turbidity based assay method (Kerns, E. et al. Automation in Pharmaceutical Profiling. Journal of Laboratory Automation (2005) 10, 114-123). 198 μL of 1×PBS (137 mM NaCl, 2.7 mM KCl, 10 mM Na2HPO4, 2 mM KH2PO4, pH 7.2) was added to the wells of a 96-well plate. FQI-34 (either dried or air-exposed (9% water as determined by NMR)) was dissolved in DMSO for 30 mM final concentration immediately before testing. The 30 mM stock was further diluted in DMSO appropriately for the desired final concentration to be tested in the solubility assay. 2 μL of the DMSO solutions were added to the 96-well plate such that DMSO was kept to 1%. The plate was sealed and gently shaken, and allowed to incubate at 37° C. for 2 hours, after which the absorbance at 620 nm was taken. The concentration at which the absorbance was greater than or equal to 0.01 absorbance units was taken as the precipitation point.

| SMILES | IC50 (HeLa cells; HeLa, Example 7, FIG. 8, read-out: growth inhibition of HeLa Cell Line IC50) [nM] | GI50 (HeLa cells; 72 h, MTS) [µM] | suppression of growth of HCC tumor size (QGY-7703-derived tumors; about 1.0-2.0 mg/kg once every 3 days, versus untreated mice, data not shown) | general toxicity in inhibitor-treated animals (QGY-7703-derived tumors; body weight, feeding, grooming, posture, behavior, H&E of tissues) | expression of Ki-67 in endpoint tumors (QGY-7703-derived tumors; immunofluorescence) | expression of osteopontin in endpoint tumors (QGY-7703-derived tumors; immunofluorescence) | tumor growth in mouse xenograft (QGY-7703-derived tumors; in words) | growth of hepatocellular carcinoma in vivo (QGY-7703-derived tumors; in words, listed as formula (IV)) | growth of hepatocellular carcinoma in vivo (QGY-7703-derived tumors; in words, listed as formula IV) | reduction of HCC tumor volume (QGY-7703-derived tumors; mouse model, data not shown) | decrease in endpoint tumor volumes (QGY-7703-derived tumors; multiple intraperitoneal injections over 2 weeks, analysis 2 weeks later, data not shown) [fold] | apoptosis in flow cytometric TUNEL assay (QGY-7703 cells) [%] | solubility kinetic at 2 h ([1]; air-exposed (9% water)) [µM] | solubility kinetic at 2 h ([1]; dry) [µM] |
| --- | --- | --- | --- | --- | --- | --- | --- | --- | --- | --- | --- | --- | --- | --- |
| CCOc1ccccc1C1CC(=O)Nc2cc3c(cc21)OCO3 (racemic) [FQI1, 8-(2-ethoxyphenyl)-7,8-dihydro-[1,3]dioxolo[4,5-g]quinolin-6(5H)-one] | 790 ± 35 | 0.79 | 65-80% | not evident | abolished | abolished | remarkable decrease in tumor growth | prevented or delayed the growth of hepatocellular carcinoma | effective at abrogating the growth of hepatocellular carcinoma in vivo | about 80% | ~9 | 90 | – | – |
| CCOc1cc(N(C)C)ccc1C1CC(=O)Nc2cc3c(cc21)OCO3 (centres unmarked) [FQI-34, 8-(4-(dimethylamino)-2-ethoxyphenyl)-7,8-dihydro-[1,3]dioxolo[4,5-g]quinolin-6(5H)-one] | – | – | – | – | – | – | – | – | – | – | – | – | 100 (≈ 35.4 µg/mL) | 150 (≈ 53.2 µg/mL) |
